Laboratory results reported in ChEMBL document CHEMBL1129029, “Understanding the binding of 5-substituted 2'-deoxyuridine substrates to thymidine kinase of herpes simplex virus type-1” (J Med Chem, 1996).

target: T1, Thymidine kinase (Human herpesvirus 1 (strain SC16) (HHV-1) (Human herpes simplex virus1), UniProt P06479); assay: Binding affinity towards HSV-1 thymidine kinase
T1 sequence (P06479 whole entry): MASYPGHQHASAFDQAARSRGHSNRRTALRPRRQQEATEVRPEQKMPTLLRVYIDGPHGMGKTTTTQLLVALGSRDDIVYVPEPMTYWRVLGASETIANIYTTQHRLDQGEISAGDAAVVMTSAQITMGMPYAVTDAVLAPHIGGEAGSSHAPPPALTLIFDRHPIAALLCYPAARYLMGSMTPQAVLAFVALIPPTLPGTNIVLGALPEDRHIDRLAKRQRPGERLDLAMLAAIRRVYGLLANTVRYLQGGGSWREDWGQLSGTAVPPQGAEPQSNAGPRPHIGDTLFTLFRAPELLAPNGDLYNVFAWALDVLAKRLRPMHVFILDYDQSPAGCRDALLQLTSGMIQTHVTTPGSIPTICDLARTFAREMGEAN

| Compound | IC50 |
| --- | --- |
| O=c1[nH]c(=O)n([C@H]2C[C@H](O)[C@@H](CO)O2)cc1-c1ccc(Br)s1 | 3.5 µM |
| O=c1[nH]c(=O)n([C@H]2C[C@H](O)[C@@H](CO)O2)cc1-c1ccoc1 | 1.5 µM |
| O=c1[nH]c(=O)n([C@H]2C[C@H](O)[C@@H](CO)O2)cc1-c1cccs1 | 2.4 µM |
| Cc1ccc(-c2cn([C@H]3C[C@H](O)[C@@H](CO)O3)c(=O)[nH]c2=O)s1 | 2.3 µM |
| O=c1[nH]c(=O)n([C@H]2C[C@H](O)[C@@H](CO)O2)cc1-c1ccno1 | 36 µM |
| O=c1[nH]c(=O)n([C@H]2C[C@H](O)[C@@H](CO)O2)cc1-c1ccsc1 | 4 µM |
| O=c1[nH]c(=O)n([C@H]2C[C@H](O)[C@@H](CO)O2)cc1-c1ccc(Cl)s1 | 2.3 µM |
| O=c1[nH]c(=O)n([C@H]2C[C@H](O)[C@@H](CO)O2)cc1-c1ccc(Cl)o1 | 28 µM |
| O=c1[nH]c(=O)n([C@H]2C[C@H](O)[C@@H](CO)O2)cc1-c1ccc(Br)o1 | 51 µM |
| O=c1[nH]c(=O)n([C@H]2C[C@H](O)[C@@H](CO)O2)cc1-c1ccco1 | 2.9 µM |
| O=c1[nH]c(=O)n([C@H]2C[C@H](O)[C@@H](CO)O2)cc1-c1cc(Br)no1 | 34 µM |
| O=c1[nH]c(=O)n([C@H]2C[C@H](O)[C@@H](CO)O2)cc1-c1cscc1Br | 143 µM |
| O=c1[nH]c(=O)n([C@H]2C[C@H](O)[C@@H](CO)O2)cc1-c1sc(Br)cc1Br | 62 µM |
| O=c1[nH]c(=O)n([C@H]2C[C@H](O)[C@@H](CO)O2)cc1-c1ccccc1 | 102 µM |
| O=c1[nH]c(=O)n([C@H]2C[C@H](O)[C@@H](CO)O2)cc1-c1sccc1Br | 61 µM |
| O=c1[nH]c(=O)n([C@H]2C[C@H](O)[C@@H](CO)O2)cc1-c1ccns1 | 3.1 µM |
